Like-named read-outs stand apart in the source and are kept apart here.
Columns and labels:
KAT2A [1] = molecular target: T1, KAT2A (Homo sapiens, UniProt Q92830); assay: Western blot of KAT2A level in NCI-H1048 cells, 24 h; type: cell-based; set-up: degrader, Western blot; conditions: various concentrations, FIG. 1 (B)
Procedure: (§1) FIG. 1. Provided compounds can provide various activities including inhibiting tumor growth in vivo. (A): Provided compounds can inhibit tumor growth in vivo. Nude Balb/c mice were inoculated with NCI-H1048 cells in Matrigel. Tumors were allowed to grow up to about 200 mm^3 and mice were then randomized into two groups. Mice were dosed intraperitoneally (i.p.) once per week with vehicle or 30 mg/kg compound 22. Tumor size was measured every three to four days and mice were sacrificed once vehicle tumors reached 2000 mm^3. Error bar is SEM. Dosing started at day 17 post tumor inoculation. (B): Provided technologies can reduce KAT2A and KAT2B levels and histone acetylation levels. […] Vehicle is DMSO. […] Cell count data relative to DMSO control after 8 days of treatment with compound 22 are presented as examples to confirm inhibition. GI50=6 nM. (D): Provided technologies can inhibit tumor growth in vivo. Nude balb/c mice inoculated with H1048 tumors were dosed intraperitoneally once per week (qw i.p.) with vehicle (HbCD) or compound 22. Average tumor volumes+/−SEM from 6 mice are represented. […] See also (A). […] Certain body weights relative to starting weight are presented as examples to confirm tolerability and safety. (F): Provided technologies can reduce KAT2A and KAT2B levels and histone acetylation levels in tumor in vivo. […]

KAT2A [2] = molecular target: T1, KAT2A; assay: KAT2A degradation, Western Blot (Jess), MOLM-13 cells; type: cell-based; set-up: degrader, Western blot
Outline: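 MOLM-13 cells in RPMI 1640/20% FBS were treated with compound for 24 h at 37 °C. RIPA lysates (4 μg) were run on a capillary Western (Jess) with anti-KAT2A antibody and chemiluminescent detection. DC50 comes from percent protein reduction versus DMSO control.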

[3] = Tolerability / body weight relative to starting weight in nude Balb/c mice bearing H1048 tumors; type: in vivo; conditions: once per week i.p.; 30 mg/kg; FIG. 1 (D), (E)
Procedure: as §1

KAT2B = KAT2B (Homo sapiens, UniProt Q92831); assay: KAT2B degradation, Western Blot, MOLM-13 cells; type: cell-based; set-up: degrader, Western blot
Procedure: MOLM-13 cells were maintained at 37° C. in 5% CO2 and 90% humidity in RPMI 1640 supplemented with 20% fetal bovine serum (FBS) and 1× penicillin/streptomycin. Cells were plated in full media at 1-2 million cells/2 mL in a 6-well tissue culture treated plate with or without compounds for 24 h at 37° C. in 5% CO2.
MOLM-13 cells or NCI-H1048 cells were washed with PBS, then lysed with RIPA buffer containing 1×protease and phosphatase inhibitors (SantaCruz Biotechnologies Cat #sc-24948A). Protein was isolated by centrifugation at 12,000×g for 10 minutes at 4° C. and supernatant was collected. Protein was quantified via Bradford assay. Samples were diluted to 4 μg lysate in 16 μL RIPA buffer and then 4 μL of Jess Sample Buffer. Samples were heated at 95° C. for 5 minutes. Samples were loaded onto 12-230 kDa Jess™ Separation Module, 8×25 capillary cartridges (SM-W004, Biotechne). Antibodies loaded were: Primary antibody for KAT2A (GCN5L2 (C26A10) Rabbit mAb (3305, CST)) and for KAT2B (PCAF (C14G9)) Rabbit mAb (3378, CST) at 1:1000 and Anti-Rabbit Detection Module for Jess™ (Cat No #DM-001, Biotechne). Signal was detected by chemiluminescence.
DC50 values were determined from percent reduction of protein as compared to the DMSO control.

MOLM-13 cells = assay: Cell growth inhibition, AML cell line MOLM-13 (CyQuant, day 7); type: cell-based; conditions: for GI50: Homo sapiens
Source text: Among other things, provided technologies are useful for treating various diseases, disorders, or conditions. For example, in some embodiments, provided technologies are useful for treating cancer as confirmed in the present Example. […] In some embodiments, provided technologies can inhibit cell proliferation. In some embodiments, the present disclosure provides technologies for assessing various technologies, e.g., compounds, compositions, or methods. Among other things, the present Example provides technologies, e.g., cell growth inhibition assay, for assessing various technologies. […] In some embodiments, the following cell growth inhibition methods are utilized to assess provided technologies.
AML: AML cell line MOLM-13 cells were cultured in RPMI+15% FBS and were plated at 500 cells/well in 100 uL media in a U-bottom 96-well plate. Compounds were dilute to 3×final in full media and 50 uL were added to corresponding wells. Compound and media were replenished on days 2 and 5. On day 7, cells were transferred to a 96-well black bottom plate and CyQuant was performed per manufacturer's instructions.
In some assessments, for cell growth inhibition, cells, e.g., MOLM13, NCI-H1048, and LASCPC-01 cells, were counted using a hemocytometer or automated cell counting in triplicates. In some assessments, proliferation in NEPC organoids as measured with Cell Titer Glo reagent (Promega). Growth inhibition was determined relative to vehicle control.

[4] = system: small cell lung cancer cells, e.g., NCI-H1048 cells; assay: Differentiation GSEA signatures from RNA-Seq, NCI-H1048; type: cell-based, human; conditions: NCI-H1048, FIG. 1
Procedure: In some embodiments, GSEA signatures are utilized for assessing cell states, differentiation, etc. In some assessments, differentiation GSEA signatures, e.g., from RNA-Seq was performed. A useful protocol is described herein as an example. In some assessments, LASCPC-01 cells, NEPC organoid cell pellets, or NCI-H1048 tumor pieces were flash frozen upon harvest and stored at −80° C. RNA was isolated, mRNA library was prepared (poly A enrichment) and sequencing was run. Reads were aligned to reference v38 using Kallis to generate gene count matrices for each sample. The gene count matrix was the input to the ML pipelines that generate normal atlas scores and cell state classification. It was also input to differential expression analysis using Edger in R. The output of differential expression was input to gene set enrichment analysis (GSEA) to define gene sets that were most shifted by treatment. For defining specific epithelial differentiation endpoints to generate the solid tumor differentiation box plots, cell state gene sets resulting from GSEA are consolidated by cell state to define a consensus set of genes that define epithelial differentiation. Other suitable technologies may also utilized in accordance with the present disclosure.

T1 sequence (Q92830 whole entry): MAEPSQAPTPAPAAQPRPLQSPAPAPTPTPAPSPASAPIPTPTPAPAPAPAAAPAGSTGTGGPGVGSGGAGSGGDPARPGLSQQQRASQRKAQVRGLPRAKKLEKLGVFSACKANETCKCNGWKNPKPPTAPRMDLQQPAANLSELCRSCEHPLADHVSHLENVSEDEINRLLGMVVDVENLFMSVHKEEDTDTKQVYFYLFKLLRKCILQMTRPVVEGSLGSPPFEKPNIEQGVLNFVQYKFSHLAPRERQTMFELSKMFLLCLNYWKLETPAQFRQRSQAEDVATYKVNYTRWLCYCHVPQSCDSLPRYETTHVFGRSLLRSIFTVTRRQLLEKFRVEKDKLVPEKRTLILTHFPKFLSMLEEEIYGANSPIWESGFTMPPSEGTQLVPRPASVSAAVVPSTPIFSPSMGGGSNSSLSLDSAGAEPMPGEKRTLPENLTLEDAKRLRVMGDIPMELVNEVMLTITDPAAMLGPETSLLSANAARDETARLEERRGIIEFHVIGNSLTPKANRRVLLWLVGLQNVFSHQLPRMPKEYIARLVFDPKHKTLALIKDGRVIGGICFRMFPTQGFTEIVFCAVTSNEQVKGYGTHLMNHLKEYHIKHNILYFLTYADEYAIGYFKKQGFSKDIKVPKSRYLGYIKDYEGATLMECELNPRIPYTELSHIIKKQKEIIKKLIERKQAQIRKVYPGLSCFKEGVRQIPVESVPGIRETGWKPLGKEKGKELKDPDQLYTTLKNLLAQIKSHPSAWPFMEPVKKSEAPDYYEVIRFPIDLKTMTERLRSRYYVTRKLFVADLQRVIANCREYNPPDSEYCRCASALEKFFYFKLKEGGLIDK
KAT2B, sequence (Q92831 whole entry): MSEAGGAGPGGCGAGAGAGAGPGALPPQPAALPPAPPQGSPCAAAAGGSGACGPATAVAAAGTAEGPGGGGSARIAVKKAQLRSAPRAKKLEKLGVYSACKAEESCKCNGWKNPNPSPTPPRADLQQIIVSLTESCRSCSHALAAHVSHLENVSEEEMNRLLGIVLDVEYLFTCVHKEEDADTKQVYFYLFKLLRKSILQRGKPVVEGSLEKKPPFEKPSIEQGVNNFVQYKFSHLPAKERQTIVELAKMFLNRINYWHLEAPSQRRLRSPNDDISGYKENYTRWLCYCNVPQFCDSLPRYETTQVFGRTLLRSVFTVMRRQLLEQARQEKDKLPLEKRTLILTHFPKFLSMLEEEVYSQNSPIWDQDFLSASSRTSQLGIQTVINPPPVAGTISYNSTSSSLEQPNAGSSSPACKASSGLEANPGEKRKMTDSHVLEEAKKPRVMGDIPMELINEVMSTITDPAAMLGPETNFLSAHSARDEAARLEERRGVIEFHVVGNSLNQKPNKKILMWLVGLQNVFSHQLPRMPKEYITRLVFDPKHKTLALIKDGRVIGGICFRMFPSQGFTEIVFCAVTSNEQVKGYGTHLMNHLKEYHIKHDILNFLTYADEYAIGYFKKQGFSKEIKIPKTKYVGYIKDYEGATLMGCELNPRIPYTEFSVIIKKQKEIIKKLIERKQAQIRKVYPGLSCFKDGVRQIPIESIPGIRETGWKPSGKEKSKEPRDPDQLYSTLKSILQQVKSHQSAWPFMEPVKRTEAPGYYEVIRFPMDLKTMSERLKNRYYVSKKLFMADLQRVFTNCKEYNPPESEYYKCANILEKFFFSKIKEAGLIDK

- reduction of KAT2A level (KAT2A [1]): confirm such reduction
- EC90 (KAT2A [2]; 24 h, MOLM-13, KAT2A, read-out: DC90 (the source's name)): 0.6 nM
- DC50 (KAT2A [2]; MOLM-13, KAT2A, read-out: DC50): 0.11 nM
- KAT2A levels (KAT2A [2]; MOLM-13 cells, FIG. 2): potently reduce KAT2A and KAT2B levels
- DC50 (KAT2A [2]; MOLM-13 cells, KAT2A, 24 h, Western Blot, vs DMSO, read-out: KAT2A MOLM-13 DC50): < 1 nM
- EC90 (KAT2B; 24 h, MOLM-13, KAT2B, read-out: DC90 (the source's name)): 3.6 nM
- DC50 (KAT2B; MOLM-13, KAT2B): 0.43 nM
- KAT2B levels (KAT2B; MOLM-13 cells, FIG. 2): potently reduce KAT2A and KAT2B levels
- GI50 (MOLM-13 cells; 168 h, MOLM-13, day 7, CyQuant, read-out: MOLM13 GI50): 2.9 nM
- GI50 (MOLM-13 cells; MOLM-13, comparison table with Ref-1, read-out: Growth GI50): 1.2 nM
SMILES: CN1C[C@H](Nc2cnn(C)c(=O)c2Br)C[C@H](c2ccc(C(=O)N3CCC(CN4CCN(c5ccc6c(c5)CN(C5CCC(=O)NC5=O)C6=O)CC4)CC3)cc2)C1 (stereo partly drawn) [Compound 22, 3-(5-(4-((1-(4-((3R,5R)-5-((5-bromo-1-methyl-6-oxo-1,6-dihydropyridazin-4-yl)amino)-1-methylpiperidin-3-yl)benzoyl)piperidin-4-yl)methyl)piperazin-1-yl)-1-oxoisoindolin-2-yl)piperidine-2,6-dione]
- tolerability (body weights relative to starting weight) [3]: well tolerated
- cell growth (MOLM-13 cells; MOLM-13 cells, FIG. 2): inhibit cell growth
- induction of differentiation [4]: induce differentiation (e.g., epithelial, neural, and/or microglial)

— patent publication US20260306640A1, “TECHNOLOGIES TARGETING CELL STATES” (Auron Therapeutics, Inc., priority 2023, published 2026)
